# Results: BindingDB's records for doi:10.1021/jm800555h (The Scripps Research Institute, 2008)
# Molecular target: Bifunctional purine biosynthesis protein ATIC (Homo sapiens, UniProt P31939)
# Assay: AICAR Tfase Inhibition Assay
# Details: pH 7.4; 26 °C
# Description: Recombinant human AICAR Tfase was used in the inhibition assay. The reaction was monitored at 298 nm by measuring the increase in absorbance corresponding to the formation of THF. The THF was generated in the transfer reaction of the formyl group from cofactor to AICAR to produce 5-formyl-AICAR. Double reciprocal plots were used to determine the Ki values.
# Sequence of Bifunctional purine biosynthesis protein ATIC (P31939 whole entry): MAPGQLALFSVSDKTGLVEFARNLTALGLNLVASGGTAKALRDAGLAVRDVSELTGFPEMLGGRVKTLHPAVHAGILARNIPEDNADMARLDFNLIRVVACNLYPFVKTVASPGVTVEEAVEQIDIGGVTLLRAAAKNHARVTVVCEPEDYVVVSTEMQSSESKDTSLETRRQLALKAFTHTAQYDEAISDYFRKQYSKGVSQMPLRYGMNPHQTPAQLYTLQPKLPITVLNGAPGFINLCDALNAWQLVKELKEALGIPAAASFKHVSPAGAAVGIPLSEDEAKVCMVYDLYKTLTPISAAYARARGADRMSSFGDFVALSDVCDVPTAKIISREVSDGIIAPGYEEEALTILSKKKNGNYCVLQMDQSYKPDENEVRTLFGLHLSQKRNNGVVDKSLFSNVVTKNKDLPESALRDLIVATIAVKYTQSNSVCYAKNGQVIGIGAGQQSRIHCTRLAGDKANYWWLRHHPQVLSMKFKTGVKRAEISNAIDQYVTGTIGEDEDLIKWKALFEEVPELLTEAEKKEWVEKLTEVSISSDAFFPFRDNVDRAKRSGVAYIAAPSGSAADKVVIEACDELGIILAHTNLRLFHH
row,Compound,Ki
1,"Nc1nc(N)c(CCC[C@@H](O)c2ccc(C(=O)NC(CCC(=O)O)C(=O)O)cc2)c(=O)[nH]1 (stereo partly drawn) [2-({4-[(1R)-4-(2,4-diamino-6-oxo-1,6-dihydropyrimidin-5-yl)-1-hydroxybutyl]phenyl}formamido)pentanedioic acid]",> 100 µM
2,"CO[C@H](CCCc1c(N)nc(N)[nH]c1=O)c1ccc(C(=O)NC(CCC(=O)O)C(=O)O)cc1 (stereo partly drawn) [2-({4-[(1R)-4-(2,4-diamino-6-oxo-1,6-dihydropyrimidin-5-yl)-1-methoxybutyl]phenyl}formamido)pentanedioic acid]",> 100 µM
3,"Nc1nc(N)c(CCC[C@H](O)c2ccc(C(=O)NC(CCC(=O)O)C(=O)O)cc2)c(=O)[nH]1 (stereo partly drawn) [2-({4-[(1S)-4-(2,4-diamino-6-oxo-1,6-dihydropyrimidin-5-yl)-1-hydroxybutyl]phenyl}formamido)pentanedioic acid]",> 100 µM
4,"CO[C@@H](CCCc1c(N)nc(N)[nH]c1=O)c1ccc(C(=O)NC(CCC(=O)O)C(=O)O)cc1 (stereo partly drawn) [2-({4-[(1S)-4-(2,4-diamino-6-oxo-1,6-dihydropyrimidin-5-yl)-1-methoxybutyl]phenyl}formamido)pentanedioic acid]",> 100 µM
5,CS[C@H](CCCc1c(N)nc(N)[nH]c1=O)c1ccc(C(=O)NC(CCC(=O)O)C(=O)O)cc1 (some centres not stated) [10R (8)],> 100 µM
6,CS[C@@H](CCCc1c(N)nc(N)[nH]c1=O)c1ccc(C(=O)NC(CCC(=O)O)C(=O)O)cc1 (some centres not stated) [10S (7)],> 100 µM

# Molecular target: T1, Trifunctional purine biosynthetic protein adenosine-3 (Homo sapiens, UniProt P22102)
# T1 sequence (P22102 whole entry): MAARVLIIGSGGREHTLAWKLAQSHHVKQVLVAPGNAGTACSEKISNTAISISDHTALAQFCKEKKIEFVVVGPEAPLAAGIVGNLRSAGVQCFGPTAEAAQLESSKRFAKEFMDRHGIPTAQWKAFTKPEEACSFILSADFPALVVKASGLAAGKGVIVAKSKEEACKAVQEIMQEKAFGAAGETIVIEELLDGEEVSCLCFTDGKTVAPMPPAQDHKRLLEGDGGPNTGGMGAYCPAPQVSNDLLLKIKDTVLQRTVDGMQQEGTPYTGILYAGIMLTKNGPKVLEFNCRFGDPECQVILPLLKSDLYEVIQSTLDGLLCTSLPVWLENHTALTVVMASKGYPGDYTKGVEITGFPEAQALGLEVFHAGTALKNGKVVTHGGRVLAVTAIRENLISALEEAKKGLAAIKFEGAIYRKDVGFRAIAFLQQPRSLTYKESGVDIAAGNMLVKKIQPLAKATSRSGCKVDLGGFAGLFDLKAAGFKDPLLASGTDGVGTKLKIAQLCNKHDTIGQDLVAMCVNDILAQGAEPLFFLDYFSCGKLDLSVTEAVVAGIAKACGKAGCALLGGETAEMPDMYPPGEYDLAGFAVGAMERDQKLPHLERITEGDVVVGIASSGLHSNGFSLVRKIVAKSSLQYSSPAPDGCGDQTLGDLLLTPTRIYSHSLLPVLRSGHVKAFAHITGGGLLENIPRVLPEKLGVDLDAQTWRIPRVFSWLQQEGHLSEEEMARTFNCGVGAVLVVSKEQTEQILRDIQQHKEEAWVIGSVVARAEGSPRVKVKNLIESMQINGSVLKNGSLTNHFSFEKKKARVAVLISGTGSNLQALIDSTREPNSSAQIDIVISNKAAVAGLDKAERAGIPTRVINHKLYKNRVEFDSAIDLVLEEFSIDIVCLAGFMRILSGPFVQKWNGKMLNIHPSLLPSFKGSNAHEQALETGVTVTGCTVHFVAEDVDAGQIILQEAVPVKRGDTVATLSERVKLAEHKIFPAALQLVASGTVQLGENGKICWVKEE
# Assay: GAR Tfase Activity Assay
# Details: pH 7.5; 26 °C
row,Compound,Ki
1,"Nc1nc(N)c(CCC[C@@H](O)c2ccc(C(=O)NC(CCC(=O)O)C(=O)O)cc2)c(=O)[nH]1 (stereo partly drawn) [2-({4-[(1R)-4-(2,4-diamino-6-oxo-1,6-dihydropyrimidin-5-yl)-1-hydroxybutyl]phenyl}formamido)pentanedioic acid]",1.1 µM
